According to patent US9974759B2, “Beta 2 adrenoceptor antagonists for treating orthostatic hypotension” (Indiana University Research & Technology Corporation, priority 2013, dated 2018):
Entries after “also recorded” stand apart in the source; their conditions may differ.

What was measured:
[1] = tested on: humans; conditions: doses up to 80 mg orally, no continuous BP monitoring; cited from earlier work
[2] = tested on: left stellate ganglion; assay: Ambulatory recording of stellate ganglion nerve activity (SGNA); conditions: carvedilol 12 mg twice daily for a week or ICI infusion 7 days; immediately before drug 209.40
Procedure: (§1) Eight mongrel dogs (4 male, weighing 20-30 kg) were used in this Example. Left thoracotomy was performed through the first intercostal space for the implantation of a D70-CCTP radiotransmitter manufactured by the Data Sciences International (DSI, St Paul, Minn.). The first pair of bipolar electrodes was inserted beneath the nerve sheath of the left stellate ganglion. A second pair of bipolar leads was attached to the left thoracic vagal nerve at a level of 4 to 5 cm above the aortic arch. The third lead, a catheter with a pressure sensor, was inserted directly into the subclavian artery for blood pressure (BP) recording. The transmitter and ground wires were inserted into a subcutaneous pocket.
(§2) After 2 weeks of recovery, the radiotransmitter was turned on to record nerve signals and BP at baseline. The pre-implantation BP was calibrated against the ambient pressure in the vivarium. […]
(§3) The nerve activities were integrated minute-by-minute. […] The mean BP was also analyzed minute-by-minute during the same period. […] Pearson correlation coefficients between these two nerve activities were calculated. […]
(§4) To determine the relationship between BP, heart rate (HR) and ANS activities, 1-minute and 4-hour averages for each dog were calculated on each day of data collection starting at midnight. Pearson correlation coefficients between SGNA and VNA were also calculated within each 4-hour interval. […]

[3] = tested on: rat model of orthostatic hypotension; conditions: no definite beneficial effect shown; cited from earlier work
[4] = tested on: mongrel dogs; assay: Ambulatory monitoring of blood pressure in dogs (radiotransmitter, Protocol 1); conditions: for BP response following simultaneous termination of sympathovagal firing and postural change: FIGS. 5A-5I, example dog, baseline drop from 110 mmHg to 80 mmHg; for BP: all eight dogs, random effects model, oral carvedilol 12 mg twice daily for a week, or 7 days of ICI infusion (3.1 μg/kg/hr), baseline 125.60; for percentage of hypotensive episodes (mean systolic pressure <100 mmHg in one min): minute-by-minute data, all dogs, baseline 7.1%
Procedure: as §1
After 2 weeks of recovery, the radiotransmitter was turned on to record nerve signals and BP at baseline. The pre-implantation BP was calibrated against the ambient pressure in the vivarium. There was a 12-hour daylight cycle in the vivarium staring at 7 AM each day. After the baseline (stellate ganglion nerve activity (SGNA), vagal nerve activity (VNA), and BP) recordings, the dogs were given oral carvedilol, 12 mg twice daily for a week. The drugs were then washed out for a week and baseline recordings were re-collected. […] The pump is designed to empty its contents over 7 days at a rate of 10 μl/hr. Therefore, the infusion rate was 3.1 μg/kg/hr for a 30 kg dog. […] The data collected at days 6-7 of the infusion were used for analyses.
The nerve activities were integrated minute-by-minute. Because BP recordings are prone to motion artifacts, the data of all dogs included in Protocol 1 was manually reviewed and the first 10 noise-free minutes of each hour were selected for analyses. The mean BP was also analyzed minute-by-minute during the same period. The SGNA was plotted against the VNA on an XY graph to visualize the patterns of activation. Pearson correlation coefficients between these two nerve activities were calculated. The data obtained from the manual analyses were subjected to further statistical analyses as described below.
To determine the relationship between BP, heart rate (HR) and ANS activities, 1-minute and 4-hour averages for each dog were calculated on each day of data collection starting at midnight. Pearson correlation coefficients between SGNA and VNA were also calculated within each 4-hour interval. To analyze data from any given individual dog, multiple linear regression with systolic BP as the dependent variable and ANS activities as the independent variables based on 1-minute average data were used. To analyze data from all dogs and the 4-hour average data, a random effects model with dog as the random effect was used with the same dependent and independent variables, plus HR and the Pearson correlation coefficient as additional independent variables. […] A cubic smoothing spline was also used to fit BP versus hour for one dog. Statistical analysis was performed with IBM SPSS Statistics 19 (Armonk, N.Y.) and SAS version 9.3 (SAS Institute Inc., Cary, N.C.).

[5] = tested on: left thoracic vagal nerve; assay: Ambulatory recording of vagal nerve activity (VNA); conditions: carvedilol 12 mg twice daily for a week or ICI infusion 7 days; immediately before drug 192.96
Procedure: as §1, §2, §3, §4

Structure (SMILES)	effect on BP or heart rate [1]	iSGNA (integrated stellate ganglion nerve activity) [2]	effect on orthostatic symptoms [3]	BP response following simultaneous termination of sympathovagal firing and postural change ([4]; listed as ICI)	BP [4]	percentage of hypotensive episodes (mean systolic pressure <100 mmHg in one min) [4] [%]	iVNA (integrated vagal nerve activity) [5]	BP response following simultaneous termination of sympathovagal firing and postural change [4]
Cc1ccc(OCC(O)C(C)NC(C)C)c2c1CCC2 (stereo not drawn) [ICI-118,551, 3-(isopropylamino)-1-[(7-methyl-4-indanyl)oxy]butan-2-ol]	does not alter BP or heart rate	281.23 (95% CI: 230.30 to 332.16) mV-s	had a tendency of improving orthostatic symptoms	no change in BP; also recorded: not followed by hypotension	133.00 (95% CI: 124.85 to 141.14) mmHg	1.3	220.18 (95% CI: 156.46 to 283.90) mV-s	
COc1ccccc1OCCNCC(O)COc1cccc2[nH]c3ccccc3c12 (stereo not drawn) [carvedilol]		258.47 (95% CI: 207.20 to 309.75) mV-s			124.8 (95% CI: 116.63 to 132.97) mmHg	7.8	186.68 mV-s	drop in BP from 100 mmHg to 80 mmHg; also recorded: followed by hypotension
